{"source": "paper PMC7766124", "about": "“Improved Cell Selectivity of Pseudin-2 via Substitution in the Leucine-Zipper Motif: In Vitro and In Vivo Antifungal Activity” (Antibiotics, 2020)", "key": {"F. moniliforme": {"test_system": "F. moniliforme", "type": "cell-based, Fusarium moniliforme (KCTC 6149)", "details": "36 h", "from_the_text": "(§1) Aspergillus flavus (KCTC 6905), A. fumigatus (KCTC 6145), Fusarium moniliforme (KCTC 6149), F. oxysporum (KCTC 16909), C. albicans (KCTC 7270), C. krusei (CCARM 14017), C. parapsilosis (CCARM 14016), C. tropicalis (KCTC 7221), and T. beigelii (KCTC 7707) were obtained from the Korea Collection for Type Cultures (KCTC) and Culture Collection of Antimicrobial Resistant Microbes (CCARM). Mold and yeast fungi were pre-grown on potato dextrose (PD) and yeast extract peptone dextrose (YPD) agars, respectively.\n(§2) Antifungal activity of peptides was performed by microtiter plate assays. Fungal conidia from four-day-old molds were collected using 0.08% Triton X-100 (v/v), and pre-cultivated yeast cells were adjusted to 2 × 10^4 spores/mL in 10 mM sodium phosphate buffer (SP, pH 7.2) or 10 mM 2-(N-morpholino)ethanesulfonic acid (MES) buffer (pH 5.5) supplemented with 20% culture medium, followed by addition to peptide solutions (0.25, 0.5, 1, 1.5, 2, 4, 6, 8, 12, 16, 32, 48, and 64 µM) in 96-well microtiter plates. After incubation for 36 h at 28 °C, the hyphal growth of conidia and the proliferation of yeast cells were observed under a light microscope. All assays were performed in triplicate. The MIC values were defined as the lowest concentration of samples that reduced fungal germination (for mold) or cell proliferation (for yeast) by more than 90% [34]."}, "T. beigelii": {"test_system": "T. beigelii", "type": "cell-based, T. beigelii (KCTC 7707)", "details": "36 h", "from_the_text": "as §1, §2"}, "HaCaT cells": {"test_system": "HaCaT cells", "assay": "Cytotoxicity, XTT cell viability assay", "type": "cell-based, human", "details": "peptides 4-256 µM, 24 h incubation, triplicate", "description": "Cell viability was assessed using sodium XTT assays. HaCaT (human immortalized keratinocytes) cells were cultured in Dulbecco’s modified Eagle medium (DMEM; ThermoFisher Scientific, Gibco, Waltman, MA, USA) supplemented with antibiotic-antimycotic (ThermoFisher Scientific, Gibco) and 10% fetal bovine serum (FBS; ThermoFisher Scientific, Gibco) at 37 °C in a humidified chamber containing 5% CO2. The cells were seeded at 5 × 10^4 cells/mL in flat-bottom 96-well microtiter plates in triplicate. Twenty-four hours later, cells were treated with two-fold serial dilutions of peptides (ranging from 256 to 4 µM) in medium, and the cells were further incubated for 24 h. Next, activated-XTT solution was added to each well and the plates were additionally incubated for 4 h. Absorbance in each well was measured at wavelengths of 480 and 650 nm using a microtiter SpectraMax M5 reader (Molecular Devices, Sunnyvale, CA, USA). Triton X-100 (0.1% v/v) and DMEM were used as controls for survival."}, "C. tropicalis cells": {"test_system": "C. tropicalis cells", "assay": "Mitochondrial superoxide, MitoSOX Red flow cytometry", "type": "cell-based", "details": "peptide at MIC for 8 h", "description": "Mitochondrial SOX was measured using MitoSOX Red probe. C. tropicalis cells (2 × 10^4 spores/mL) were treated with samples at the appropriate MIC for 8 h and then stained with MitoSOX Red according to the manufacturer’s instructions. The stained cells were acquired by flow cytometry (Attune NxT Acoustic Focusing Cytometer; ThermoFisher Scientific Co., Eugene, OR, USA) at 561 nm by 10,000 total events."}}, "note": "Like-named read-outs stand apart in the source and are kept apart here. No end group written: not given here."}
{"substance": "GLNALKKVFQGIHEAIKLINNHVQ-NH2 [Pseudin-2]", "values": [{"measurement": "MIC", "setting": "F. moniliforme; pH 5.5", "value": 64, "unit": "µM"}, {"measurement": "MIC", "setting": "F. moniliforme; pH 7.2", "value": 32, "unit": "µM"}, {"measurement": "MIC", "setting": "T. beigelii; pH 5.5", "value": "2 (2) µM"}, {"measurement": "MIC", "setting": "T. beigelii; pH 7.2", "value": "2 (2) µM"}, {"measurement": "cytotoxic effects against HaCaT cells", "setting": "HaCaT cells", "value": "significant, concentration-dependent cytotoxic effects"}, {"measurement": "MitoSOX Red fluorescence (mitochondrial SOX)", "setting": "C. tropicalis cells", "value": "a little right shift"}]}
